Results from patent publication US4684664A, “Derivatives of β-(4-isocyano-1,2,3,4-diepoxycyclopentyl) acrylic acid” (Kureha Kagaku Kogyo Kabushiki Kaisha, priority 1984, dated 1987).
Converted amounts (≈) assume the structure as drawn.

Legend:
Type in all cases: cell-based
[1] = tested on: Escherichia coli K12 C600 IAM 1264; assay: Antibacterial activity, agar-dilution MIC, organism No. 6; settings: Escherichia coli, IAM1264; Organism No. 6, bouillon-agar; read-out: Minimum Inhibitory Concentration
Summary of the method: (§1)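 Values come from agar-dilution plates prepared with bouillon agar; they represent the least specimen concentration (μg/ml of medium) giving inhibition.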

[2] = tested on: Bacillus subtilis ATCC 6633; assay: Antibacterial activity, agar-dilution MIC, organism No. 14; settings: Bacillus subtilis, ATCC6633; Organism No. 14, bouillon-agar; read-out: Minimum Inhibitory Concentration
Summary of the method: as §1

[3] = tested on: Serratia marcescens IAM 1184; assay: Antibacterial activity, agar-dilution MIC, organism No. 13; settings: Serratia marcescens, IAM1184; Organism No. 13, bouillon-agar; read-out: Minimum Inhibitory Concentration
Summary of the method: as §1

[4] = tested on: Pseudomonas aeruginosa PAO 1; assay: Antibacterial activity, agar-dilution MIC, organism No. 17; settings: Pseudomonas aeruginosa, PAO1; Organism No. 17, bouillon-agar; read-out: Minimum Inhibitory Concentration
Summary of the method: as §1

[5] = tested on: Salmonella shottmuelleri 8006; assay: Antibacterial activity, agar-dilution MIC, organism No. 11; settings: Salmonella, 8006; Organism No. 11, bouillon-agar; read-out: Minimum Inhibitory Concentration
Summary of the method: as §1

[6] = tested on: Mycoplasma pneumoniae IID817; assay: Antimycoplasmal activity, MIC by phenol red colour change, organism No. 28; settings: Mycoplasma, IID817; Organism No. 28, PPLO broth + 1% glucose, 37° C.; read-out: Minimum Inhibitory Concentration (MIC)
Experimental: Mycoplasma pneumoniae IID817 was used as the test microorganism in a culture medium prepared by adding 1% of glucose to "PPLO broth (manufactured by Difco Co.) liquid culture medium" at 37° C. with phenol red as an indicator, thereby culturing the test microorganism.

Proteus vulgaris OX-19 = assay: Antibacterial activity, agar-dilution MIC, organism No. 20; settings: Proteus vulgaris, OX19; Organism No. 20, bouillon-agar; read-out: Minimum Inhibitory Concentration
Summary of the method: as §1

[7] = tested on: Salmonella enteritidis G 14; assay: Antibacterial activity, agar-dilution MIC, organism No. 12; settings: Salmonella enterica, ENTERITIDIS; Organism No. 12, bouillon-agar; read-out: Minimum Inhibitory Concentration
Summary of the method: as §1

[8] = tested on: Aspergillus niger IFO 6342; assay: Antifungal activity, agar-dilution MIC, organism No. 30; settings: Aspergillus niger, IFO6342; Organism No. 30, bouillon-agar; read-out: Minimum Inhibitory Concentration
Summary of the method: as §1

Proteus vulgaris HX-19 = assay: Antibacterial activity, agar-dilution MIC, organism No. 21; settings: Proteus vulgaris, HX19; Organism No. 21, bouillon-agar; read-out: Minimum Inhibitory Concentration
Summary of the method: as §1

[9] = tested on: Klebsiella pneumoniae PCI-602; assay: Antibacterial activity, agar-dilution MIC, organism No. 7; settings: Klebsiella pneumoniae, PCI602; Organism No. 7, bouillon-agar; read-out: Minimum Inhibitory Concentration
Summary of the method: as §1

[10] = tested on: Enterobacter aerogenes ATCC 13048; assay: Antibacterial activity, agar-dilution MIC, organism No. 23; settings: Klebsiella aerogenes, ATCC13048; Organism No. 23, bouillon-agar; read-out: Minimum Inhibitory Concentration
Summary of the method: as §1

[11] = tested on: Streptococcus pyogenes IFO 3340; assay: Antibacterial activity, agar-dilution MIC, organism No. 26; settings: Streptococcus pyogenes, IFO3340; Organism No. 26, bouillon-agar; read-out: Minimum Inhibitory Concentration
Summary of the method: as §1

[12] = tested on: Staphylococcus aureus MS 353; assay: Antibacterial activity, agar-dilution MIC, organism No. 3; settings: Staphylococcus aureus, MS353; Organism No. 3, bouillon-agar; read-out: Minimum Inhibitory Concentration
Summary of the method: as §1

[13] = tested on: Candida albicans IAM 4905; assay: Antifungal activity, agar-dilution MIC, organism No. 29; settings: Candida albicans, IAM4905; Organism No. 29, bouillon-agar; read-out: Minimum Inhibitory Concentration
Summary of the method: as §1

[14] = tested on: Proteus rettgeri IFO 3850; assay: Antibacterial activity, agar-dilution MIC, organism No. 22; settings: Providencia rettgeri, IFO3850; Organism No. 22, bouillon-agar; read-out: Minimum Inhibitory Concentration
Summary of the method: as §1

[15] = tested on: Streptococcus faecium IFO 3826; assay: Antibacterial activity, agar-dilution MIC, organism No. 27; settings: Enterococcus faecium, IFO3826; Organism No. 27, bouillon-agar; read-out: Minimum Inhibitory Concentration
Summary of the method: as §1

[16] = tested on: Staphylococcus aureus FDA 209PJc-1; assay: Antibacterial activity, agar-dilution MIC, organism No. 1; settings: Staphylococcus aureus, FDA209PJC1; Organism No. 1, bouillon-agar; read-out: Minimum Inhibitory Concentration
Summary of the method: as §1

Enterobacter cloacae 963 = assay: Antibacterial activity, agar-dilution MIC, organism No. 24; settings: Enterobacter cloacae, 963; Organism No. 24, bouillon-agar; read-out: Minimum Inhibitory Concentration
Summary of the method: as §1

[17] = tested on: Salmonella paratyphi-A 1015; assay: Antibacterial activity, agar-dilution MIC, organism No. 10; settings: Salmonella enterica, PARATYPHI, read-out: Minimum Inhibitory Concentration
Summary of the method: as §1

[18] = tested on: Escherichia coli NIHJ-JC-2; assay: Antibacterial activity, agar-dilution MIC, organism No. 5; settings: Escherichia coli, NIHJJC2; Organism No. 5, bouillon-agar; read-out: Minimum Inhibitory Concentration
Summary of the method: as §1

[19] = tested on: Micrococcus luteus ATCC 9341; assay: Antibacterial activity, agar-dilution MIC, organism No. 25; settings: Micrococcus luteus, ATCC9341; Organism No. 25, bouillon-agar; read-out: Minimum Inhibitory Concentration
Summary of the method: as §1

[20] = tested on: Pseudomonas aeruginosa IFO 3445; assay: Antibacterial activity, agar-dilution MIC, organism No. 15; settings: Pseudomonas aeruginosa, IFO3445; Organism No. 15, bouillon-agar; read-out: Minimum Inhibitory Concentration
Summary of the method: as §1

[21] = tested on: Salmonella typhimurium IID 971; assay: Antibacterial activity, agar-dilution MIC, organism No. 8; settings: Salmonella enterica; Organism No. 8, bouillon-agar; read-out: Minimum Inhibitory Concentration
Summary of the method: as §1

[22] = tested on: Proteus mirabilis IFO 3849; assay: Antibacterial activity, agar-dilution MIC, organism No. 19; settings: Proteus mirabilis, IFO3849; Organism No. 19, bouillon-agar; read-out: Minimum Inhibitory Concentration
Summary of the method: as §1

[23] = tested on: Staphylococcus aureus Terajima; assay: Antibacterial activity, agar-dilution MIC, organism No. 2; settings: Staphylococcus aureus; Organism No. 2, bouillon-agar; read-out: Minimum Inhibitory Concentration
Summary of the method: as §1

[24] = tested on: Proteus morganii IFO 3848; assay: Antibacterial activity, agar-dilution MIC, organism No. 18; settings: Morganella morganii, IFO3848; Organism No. 18, bouillon-agar; read-out: Minimum Inhibitory Concentration
Summary of the method: as §1

[25] = tested on: Pseudomonas aeruginosa NCTC 10490; assay: Antibacterial activity, agar-dilution MIC, organism No. 16; settings: Pseudomonas aeruginosa, NCTC10490; Organism No. 16, bouillon-agar; read-out: Minimum Inhibitory Concentration
Summary of the method: as §1

Salmonella typhi 901 = assay: Antibacterial activity, agar-dilution MIC, organism No. 9; settings: Salmonella enterica, TYPHI, read-out: Minimum Inhibitory Concentration
Summary of the method: as §1

[26] = tested on: Streptococcus pyogenes Cook; assay: Antibacterial activity, agar-dilution MIC, organism No. 4; settings: Streptococcus pyogenes; Organism No. 4, bouillon-agar; read-out: Minimum Inhibitory Concentration
Summary of the method: as §1

**Q.** `[C-]#[N+]C12CC3(/C=C/C(=O)OCc4cccc(OC)c4)OC3C1O2` (stereo not drawn) [compound 12] was tested. Which MIC [1] did it give?
**A.** 6.25 µg/mL (≈ 19.9 µM)

**Q.** And the MIC [2]?
**A.** 1.56 µg/mL (≈ 4.98 µM)

**Q.** And the MIC [3]?
**A.** 12.5 µg/mL (≈ 39.9 µM)

**Q.** And the MIC [4]?
**A.** > 100 µg/mL

**Q.** What about the MIC [5] of the same molecule?
**A.** 3.13 µg/mL (≈ 9.99 µM)

**Q.** And the MIC [6]?
**A.** 0.4 µg/mL

**Q.** What about the MIC (Proteus vulgaris OX-19) of the same molecule?
**A.** 0.78 µg/mL (≈ 2.49 µM)

**Q.** And the MIC [7]?
**A.** 3.13 µg/mL (≈ 9.99 µM)

**Q.** What about the MIC [8] of the same molecule?
**A.** 3.13 µg/mL (≈ 9.99 µM)

**Q.** What about the MIC (Proteus vulgaris HX-19) of the same molecule?
**A.** < 0.1 µg/mL

**Q.** What about the MIC [9] of the same molecule?
**A.** 0.39 µg/mL (≈ 1.24 µM)

**Q.** What about the MIC [10] of the same molecule?
**A.** > 100 µg/mL

**Q.** And the MIC [11]?
**A.** 3.13 µg/mL (≈ 9.99 µM)

**Q.** What about the MIC [12] of the same molecule?
**A.** 0.78 µg/mL (≈ 2.49 µM)

**Q.** And the MIC [13]?
**A.** 1.56 µg/mL (≈ 4.98 µM)

**Q.** What about the MIC [14] of the same molecule?
**A.** > 100 µg/mL

**Q.** What about the MIC [15] of the same molecule?
**A.** 3.13 µg/mL (≈ 9.99 µM)

**Q.** What about the MIC [16] of the same molecule?
**A.** 1.56 µg/mL (≈ 4.98 µM)

**Q.** And the MIC (Enterobacter cloacae 963)?
**A.** > 100 µg/mL

**Q.** What about the MIC [17] of the same molecule?
**A.** 3.13 µg/mL (≈ 9.99 µM)

**Q.** What about the MIC [18] of the same molecule?
**A.** 6.25 µg/mL (≈ 19.9 µM)

**Q.** And the MIC [19]?
**A.** < 0.1 µg/mL

**Q.** What about the MIC [20] of the same molecule?
**A.** > 100 µg/mL

**Q.** And the MIC [21]?
**A.** 6.25 µg/mL (≈ 19.9 µM)

**Q.** What about the MIC [22] of the same molecule?
**A.** 3.13 µg/mL (≈ 9.99 µM)

**Q.** What about the MIC [23] of the same molecule?
**A.** 3.13 µg/mL (≈ 9.99 µM)

**Q.** What about the MIC [24] of the same molecule?
**A.** 1.56 µg/mL (≈ 4.98 µM)

**Q.** What about the MIC [25] of the same molecule?
**A.** > 100 µg/mL

**Q.** And the MIC (Salmonella typhi 901)?
**A.** 3.13 µg/mL (≈ 9.99 µM)

**Q.** What about the MIC [26] of the same molecule?
**A.** 3.13 µg/mL (≈ 9.99 µM)

**Q.** With `[C-]#[N+]C12CC3(/C=C/C(=O)Nc4ccc5c(c4)OCO5)OC3C1O2` (stereo not drawn) [compound 64] as the molecule, how does the MIC [1] read?
**A.** 12.5 µg/mL (≈ 40 µM)

**Q.** And the MIC [2]?
**A.** 6.25 µg/mL (≈ 20 µM)

**Q.** What about the MIC [3] of the same molecule?
**A.** 50 µg/mL (≈ 160 µM)

**Q.** And the MIC [4]?
**A.** > 200 µg/mL

**Q.** And the MIC [5]?
**A.** 0.39 µg/mL (≈ 1.25 µM)

**Q.** What about the MIC [6] of the same molecule?
**A.** < 0.2 µg/mL

**Q.** What about the MIC (Proteus vulgaris OX-19) of the same molecule?
**A.** 0.2 µg/mL (≈ 0.64 µM)

**Q.** And the MIC [7]?
**A.** 3.13 µg/mL (≈ 10 µM)

**Q.** And the MIC [8]?
**A.** 6.25 µg/mL (≈ 20 µM)

**Q.** What about the MIC (Proteus vulgaris HX-19) of the same molecule?
**A.** 0.05 µg/mL (≈ 0.16 µM)

**Q.** And the MIC [9]?
**A.** 0.2 µg/mL (≈ 0.64 µM)

**Q.** And the MIC [10]?
**A.** > 200 µg/mL

**Q.** And the MIC [11]?
**A.** 1.56 µg/mL (≈ 5 µM)

**Q.** What about the MIC [12] of the same molecule?
**A.** 0.2 µg/mL (≈ 0.64 µM)

**Q.** And the MIC [13]?
**A.** 0.39 µg/mL (≈ 1.25 µM)

**Q.** What about the MIC [14] of the same molecule?
**A.** 3.13 µg/mL (≈ 10 µM)

**Q.** What about the MIC [15] of the same molecule?
**A.** 12.5 µg/mL (≈ 40 µM)

**Q.** What about the MIC [16] of the same molecule?
**A.** 0.2 µg/mL (≈ 0.64 µM)

**Q.** What about the MIC (Enterobacter cloacae 963) of the same molecule?
**A.** > 200 µg/mL

**Q.** What about the MIC [17] of the same molecule?
**A.** 0.39 µg/mL (≈ 1.25 µM)

**Q.** What about the MIC [18] of the same molecule?
**A.** 25 µg/mL (≈ 80.1 µM)

**Q.** What about the MIC [19] of the same molecule?
**A.** 0.05 µg/mL (≈ 0.16 µM)

**Q.** What about the MIC [20] of the same molecule?
**A.** > 200 µg/mL

**Q.** What about the MIC [21] of the same molecule?
**A.** 6.25 µg/mL (≈ 20 µM)

**Q.** And the MIC [22]?
**A.** > 200 µg/mL

**Q.** And the MIC [23]?
**A.** 0.78 µg/mL (≈ 2.5 µM)

**Q.** What about the MIC [24] of the same molecule?
**A.** 6.25 µg/mL (≈ 20 µM)

**Q.** And the MIC [25]?
**A.** > 200 µg/mL

**Q.** What about the MIC (Salmonella typhi 901) of the same molecule?
**A.** 3.13 µg/mL (≈ 10 µM)

**Q.** What about the MIC [26] of the same molecule?
**A.** 12.5 µg/mL (≈ 40 µM)
